Tests used:
[1] = Effect on low-threshold (T-type) Calcium current in primary cultured rat cerebrocortical neurons; format: functional
[2] = molecular target: Sodium channel alpha subunits; brain (Types I, II, III) (Rattus norvegicus, UniProt P04775+P04774+P08104); experiment: Inhibition of veratridine-induced depolarization in rat cerebrocortical synaptosomes using the voltage sensitive fluorescent dye Rhodamine 6G; format: functional, subcellular
Mus musculus = experiment: Compound was tested in vivo for anticonvulsant activity in DBA/2 mice by i.p. administration; format: functional; settings: ip
D(2) dopamine receptor = D(2) dopamine receptor (Rattus norvegicus, UniProt P61169); experiment: Inhibition of [3H]raclopride binding to Dopamine receptor D2 of rat striatum membranes; format: cell membranes, Membrane
D(2) dopamine receptor, sequence (P61169 whole entry): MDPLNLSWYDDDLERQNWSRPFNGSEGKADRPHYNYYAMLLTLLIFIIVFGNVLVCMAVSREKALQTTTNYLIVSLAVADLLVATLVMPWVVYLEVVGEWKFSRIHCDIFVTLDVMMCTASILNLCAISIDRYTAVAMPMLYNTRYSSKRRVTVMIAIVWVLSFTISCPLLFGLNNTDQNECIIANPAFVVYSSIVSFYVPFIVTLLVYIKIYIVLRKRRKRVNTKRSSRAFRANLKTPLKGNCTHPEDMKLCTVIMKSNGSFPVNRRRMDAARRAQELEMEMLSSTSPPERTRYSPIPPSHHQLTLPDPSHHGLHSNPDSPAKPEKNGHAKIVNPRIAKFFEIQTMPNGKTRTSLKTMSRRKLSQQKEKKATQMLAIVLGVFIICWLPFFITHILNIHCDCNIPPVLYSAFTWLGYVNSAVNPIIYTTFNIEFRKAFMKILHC

Compound | IC50 [1] | IC50 [2] | ED50 (Mus musculus) | IC50 (D(2) dopamine receptor)
Cl.O[C@H](COc1ccccc1)CN1CCC(c2ccc(Oc3ccccc3)cc2)CC1 | 2000 nM | 130 nM | 2.5 mg/kg | 4340 nM
Cl.O[C@@H](COc1ccccc1)CN1CCC(c2ccc(Oc3ccccc3)cc2)CC1 | 2700 nM | 120 nM | 2.5 mg/kg | 4080 nM
Fc1ccc(C(c2ccc(F)cc2)N2CCN(C/C=C/c3ccccc3)CC2)cc1 [FLUNARIZINE] | 2200 nM | – | 6.4 mg/kg | –
Cl.OC(COc1ccccc1)CN1CCC(c2ccc(Cc3ccc(F)cc3)cc2)CC1 (centres undefined) | 800 nM | 360 nM | 7.5 mg/kg | > 10000 nM
Cl.OC(COc1ccccc1)CN1CCC(c2ccc(Oc3ccccc3)cc2)CC1 (centres undefined) | 3500 nM | 220 nM | 5 mg/kg | 4640 nM
Cl.Fc1ccc(Cc2ccc(C3CCN(C/C=C/c4ccccc4)CC3)cc2)cc1 | 600 nM | 190 nM | 2.2 mg/kg | –
C(=C\c1ccccc1)/CN1CCC(c2ccc(Oc3ccccc3)cc2)CC1.Cl | 800 nM | 320 nM | 4.2 mg/kg | –

Reference: ChEMBL document CHEMBL1131853 (Bioorg Med Chem Lett, 1999)
